Measurements as given in the NIST ThermoML archive (doi:10.1021/acs.jced.5b00613).
Numbers after ± are expanded uncertainties.

details: 348.15 K; 30000 kPa; Liquid; Vibrating tube method

| Compound | mass density |
| --- | --- |
| CCCCCCCCCCCCCCCC [hexadecane] | 757.8 ± 0.8 kg/m3 |
| CCCCCCCCCC [decane] | 714.6 ± 0.8 kg/m3 |
| CCCCCC [hexane] | 645.2 ± 0.9 kg/m3 |
| CCCCCCCCCCCC [dodecane] | 733.5 ± 0.8 kg/m3 |

same assay, conditions: 348.15 K; 40000 kPa; Liquid; Vibrating tube method

| Compound | mass density |
| --- | --- |
| CCCCCCCCCCCCCCCC [hexadecane] | 763.9 ± 0.9 kg/m3 |
| CCCCCCCCCC [decane] | 721.8 ± 0.9 kg/m3 |
| CCCCCC [hexane] | 654.4 ± 1 kg/m3 |
| CCCCCCCCCCCC [dodecane] | 740.2 ± 0.9 kg/m3 |

same assay, conditions: 348.15 K; 50000 kPa; Liquid; Vibrating tube method

| Compound | mass density |
| --- | --- |
| CCCCCCCCCCCCCCCC [hexadecane] | 769.7 ± 0.9 kg/m3 |
| CCCCCCCCCC [decane] | 728.4 ± 0.9 kg/m3 |
| CCCCCC [hexane] | 662.6 ± 1.1 kg/m3 |
| CCCCCCCCCCCC [dodecane] | 746.4 ± 0.9 kg/m3 |

same assay, conditions: 348.15 K; 60000 kPa; Liquid; Vibrating tube method

| Compound | mass density |
| --- | --- |
| CCCCCCCCCCCCCCCC [hexadecane] | 775.1 ± 0.9 kg/m3 |
| CCCCCCCCCC [decane] | 734.6 ± 1 kg/m3 |
| CCCCCC [hexane] | 670.2 ± 1.1 kg/m3 |
| CCCCCCCCCCCC [dodecane] | 752.3 ± 1 kg/m3 |

same assay, conditions: 373.15 K; 100 kPa; Liquid; Vibrating tube method

| Compound | mass density |
| --- | --- |
| CCCCCCCCCCCCCCCC [hexadecane] | 717.8 ± 5 kg/m3 |
| CCCCCCCCCC [decane] | 667.1 ± 5 kg/m3 |

same assay, conditions: 373.15 K; 1000 kPa; Liquid; Vibrating tube method

| Compound | mass density |
| --- | --- |
| CCCCCCCCCCCCCCCC [hexadecane] | 719.4 ± 3 kg/m3 |
| CCCCCCCCCC [decane] | 668.8 ± 3 kg/m3 |
| CCCCCC [hexane] | 582.6 ± 3 kg/m3 |
| CCCCCCCCCCCC [dodecane] | 690.8 ± 3 kg/m3 |

same assay, conditions: 373.15 K; 5000 kPa; Liquid; Vibrating tube method

| Compound | mass density |
| --- | --- |
| CCCCCCCCCCCCCCCC [hexadecane] | 723.2 ± 3 kg/m3 |
| CCCCCCCCCC [decane] | 673.8 ± 3 kg/m3 |
| CCCCCC [hexane] | 591 ± 3 kg/m3 |
| CCCCCCCCCCCC [dodecane] | 695.2 ± 3 kg/m3 |

same assay, conditions: 373.15 K; 10000 kPa; Liquid; Vibrating tube method

| Compound | mass density |
| --- | --- |
| CCCCCCCCCCCCCCCC [hexadecane] | 727.7 ± 3 kg/m3 |
| CCCCCCCCCC [decane] | 679.6 ± 3 kg/m3 |
| CCCCCC [hexane] | 600 ± 3 kg/m3 |
| CCCCCCCCCCCC [dodecane] | 700.4 ± 3 kg/m3 |

same assay, conditions: 373.15 K; 20000 kPa; Liquid; Vibrating tube method

| Compound | mass density |
| --- | --- |
| CCCCCCCCCCCCCCCC [hexadecane] | 735.9 ± 3 kg/m3 |
| CCCCCCCCCC [decane] | 689.8 ± 3 kg/m3 |
| CCCCCC [hexane] | 614.8 ± 3 kg/m3 |
| CCCCCCCCCCCC [dodecane] | 709.8 ± 3 kg/m3 |

same assay, conditions: 373.15 K; 30000 kPa; Liquid; Vibrating tube method

| Compound | mass density |
| --- | --- |
| CCCCCCCCCCCCCCCC [hexadecane] | 743.4 ± 3 kg/m3 |
| CCCCCCCCCC [decane] | 698.8 ± 3 kg/m3 |
| CCCCCC [hexane] | 627 ± 3.1 kg/m3 |
| CCCCCCCCCCCC [dodecane] | 718.1 ± 3 kg/m3 |

same assay, conditions: 373.15 K; 40000 kPa; Liquid; Vibrating tube method

| Compound | mass density |
| --- | --- |
| CCCCCCCCCCCCCCCC [hexadecane] | 750.3 ± 3 kg/m3 |
| CCCCCCCCCC [decane] | 706.8 ± 3.1 kg/m3 |
| CCCCCC [hexane] | 637.4 ± 3.1 kg/m3 |
| CCCCCCCCCCCC [dodecane] | 725.6 ± 3 kg/m3 |

same assay, conditions: 373.15 K; 50000 kPa; Liquid; Vibrating tube method

| Compound | mass density |
| --- | --- |
| CCCCCCCCCCCCCCCC [hexadecane] | 756.5 ± 3.1 kg/m3 |
| CCCCCCCCCC [decane] | 714.1 ± 3.1 kg/m3 |
| CCCCCC [hexane] | 646.6 ± 3.1 kg/m3 |
| CCCCCCCCCCCC [dodecane] | 732.5 ± 3.1 kg/m3 |

same assay, conditions: 373.15 K; 60000 kPa; Liquid; Vibrating tube method

| Compound | mass density |
| --- | --- |
| CCCCCCCCCCCCCCCC [hexadecane] | 762.4 ± 3.1 kg/m3 |
| CCCCCCCCCC [decane] | 720.8 ± 3.1 kg/m3 |
| CCCCCC [hexane] | 654.9 ± 3.1 kg/m3 |
| CCCCCCCCCCCC [dodecane] | 738.9 ± 3.1 kg/m3 |

same assay, conditions: 423.15 K; 100 kPa; Liquid; Vibrating tube method

| Compound | mass density |
| --- | --- |
| CCCCCCCCCCCCCCCC [hexadecane] | 680.8 ± 5 kg/m3 |
| CCCCCCCCCC [decane] | 624.8 ± 5 kg/m3 |

same assay, conditions: 423.15 K; 1000 kPa; Liquid; Vibrating tube method

| Compound | mass density |
| --- | --- |
| CCCCCCCCCCCCCCCC [hexadecane] | 684.1 ± 3 kg/m3 |
| CCCCCCCCCC [decane] | 627.2 ± 3 kg/m3 |
| CCCCCC [hexane] | 521.2 ± 3.1 kg/m3 |
| CCCCCCCCCCCC [dodecane] | 652.6 ± 3 kg/m3 |

same assay, conditions: 423.15 K; 5000 kPa; Liquid; Vibrating tube method

| Compound | mass density |
| --- | --- |
| CCCCCCCCCCCCCCCC [hexadecane] | 689.2 ± 3 kg/m3 |
| CCCCCCCCCC [decane] | 634.5 ± 3 kg/m3 |
| CCCCCC [hexane] | 536.9 ± 3.1 kg/m3 |
| CCCCCCCCCCCC [dodecane] | 658.7 ± 3 kg/m3 |

same assay, conditions: 423.15 K; 10000 kPa; Liquid; Vibrating tube method

| Compound | mass density |
| --- | --- |
| CCCCCCCCCCCCCCCC [hexadecane] | 695.1 ± 3 kg/m3 |
| CCCCCCCCCC [decane] | 642.4 ± 3 kg/m3 |
| CCCCCC [hexane] | 551.5 ± 3 kg/m3 |
| CCCCCCCCCCCC [dodecane] | 665.6 ± 3 kg/m3 |

same assay, conditions: 423.15 K; 20000 kPa; Liquid; Vibrating tube method

| Compound | mass density |
| --- | --- |
| CCCCCCCCCCCCCCCC [hexadecane] | 705.5 ± 3 kg/m3 |
| CCCCCCCCCC [decane] | 655.8 ± 3 kg/m3 |
| CCCCCC [hexane] | 573.2 ± 3.1 kg/m3 |
| CCCCCCCCCCCC [dodecane] | 677.6 ± 3 kg/m3 |

same assay, conditions: 423.15 K; 30000 kPa; Liquid; Vibrating tube method

| Compound | mass density |
| --- | --- |
| CCCCCCCCCCCCCCCC [hexadecane] | 714.7 ± 3 kg/m3 |
| CCCCCCCCCC [decane] | 667.1 ± 3 kg/m3 |
| CCCCCC [hexane] | 589.7 ± 3.1 kg/m3 |
| CCCCCCCCCCCC [dodecane] | 688 ± 3 kg/m3 |

same assay, conditions: 423.15 K; 40000 kPa; Liquid; Vibrating tube method

| Compound | mass density |
| --- | --- |
| CCCCCCCCCCCCCCCC [hexadecane] | 722.9 ± 3.1 kg/m3 |
| CCCCCCCCCC [decane] | 677 ± 3.1 kg/m3 |
| CCCCCC [hexane] | 603.2 ± 3.1 kg/m3 |
| CCCCCCCCCCCC [dodecane] | 697 ± 3.1 kg/m3 |

same assay, conditions: 423.15 K; 50000 kPa; Liquid; Vibrating tube method

| Compound | mass density |
| --- | --- |
| CCCCCCCCCCCCCCCC [hexadecane] | 730.4 ± 3.1 kg/m3 |
| CCCCCCCCCC [decane] | 685.9 ± 3.1 kg/m3 |
| CCCCCC [hexane] | 614.6 ± 3.1 kg/m3 |
| CCCCCCCCCCCC [dodecane] | 705.3 ± 3.1 kg/m3 |

same assay, conditions: 423.15 K; 60000 kPa; Liquid; Vibrating tube method

| Compound | mass density |
| --- | --- |
| CCCCCCCCCCCCCCCC [hexadecane] | 737.2 ± 3.1 kg/m3 |
| CCCCCCCCCC [decane] | 693.8 ± 3.1 kg/m3 |
| CCCCCC [hexane] | 624.8 ± 3.2 kg/m3 |
| CCCCCCCCCCCC [dodecane] | 712.8 ± 3.1 kg/m3 |

same assay, conditions: 463.15 K; 100 kPa; Liquid; Vibrating tube method

| Compound | mass density |
| --- | --- |
| CCCCCCCCCCCCCCCC [hexadecane] | 651.6 ± 5 kg/m3 |

same assay, conditions: 463.15 K; 1000 kPa; Liquid; Vibrating tube method

| Compound | mass density |
| --- | --- |
| CCCCCCCCCCCCCCCC [hexadecane] | 654.5 ± 5 kg/m3 |
| CCCCCCCCCC [decane] | 590.4 ± 5 kg/m3 |

same assay, conditions: 463.15 K; 5000 kPa; Liquid; Vibrating tube method

| Compound | mass density |
| --- | --- |
| CCCCCCCCCCCCCCCC [hexadecane] | 661 ± 3 kg/m3 |
| CCCCCCCCCC [decane] | 600.3 ± 3 kg/m3 |
| CCCCCC [hexane] | 484.2 ± 3.1 kg/m3 |
| CCCCCCCCCCCC [dodecane] | 627.9 ± 3 kg/m3 |

same assay, conditions: 463.15 K; 10000 kPa; Liquid; Vibrating tube method

| Compound | mass density |
| --- | --- |
| CCCCCCCCCCCCCCCC [hexadecane] | 668.5 ± 3 kg/m3 |
| CCCCCCCCCC [decane] | 610.8 ± 3 kg/m3 |
| CCCCCC [hexane] | 508.5 ± 3.1 kg/m3 |
| CCCCCCCCCCCC [dodecane] | 636.9 ± 3 kg/m3 |

same assay, conditions: 463.15 K; 20000 kPa; Liquid; Vibrating tube method

| Compound | mass density |
| --- | --- |
| CCCCCCCCCCCCCCCC [hexadecane] | 681.2 ± 3 kg/m3 |
| CCCCCCCCCC [decane] | 627.8 ± 3 kg/m3 |
| CCCCCC [hexane] | 538.9 ± 3.1 kg/m3 |
| CCCCCCCCCCCC [dodecane] | 651.8 ± 3 kg/m3 |

same assay, conditions: 463.15 K; 30000 kPa; Liquid; Vibrating tube method

| Compound | mass density |
| --- | --- |
| CCCCCCCCCCCCCCCC [hexadecane] | 692 ± 3 kg/m3 |
| CCCCCCCCCC [decane] | 641.4 ± 3.1 kg/m3 |
| CCCCCC [hexane] | 559.8 ± 3.1 kg/m3 |
| CCCCCCCCCCCC [dodecane] | 664.2 ± 3.1 kg/m3 |

same assay, conditions: 463.15 K; 40000 kPa; Liquid; Vibrating tube method

| Compound | mass density |
| --- | --- |
| CCCCCCCCCCCCCCCC [hexadecane] | 701.4 ± 3.1 kg/m3 |
| CCCCCCCCCC [decane] | 653.1 ± 3.1 kg/m3 |
| CCCCCC [hexane] | 575.9 ± 3.1 kg/m3 |
| CCCCCCCCCCCC [dodecane] | 674.8 ± 3.1 kg/m3 |

same assay, conditions: 463.15 K; 50000 kPa; Liquid; Vibrating tube method

| Compound | mass density |
| --- | --- |
| CCCCCCCCCCCCCCCC [hexadecane] | 709.8 ± 3.1 kg/m3 |
| CCCCCCCCCC [decane] | 663.3 ± 3.1 kg/m3 |
| CCCCCC [hexane] | 589.3 ± 3.2 kg/m3 |
| CCCCCCCCCCCC [dodecane] | 684.1 ± 3.1 kg/m3 |

same assay, conditions: 463.15 K; 60000 kPa; Liquid; Vibrating tube method

| Compound | mass density |
| --- | --- |
| CCCCCCCCCCCCCCCC [hexadecane] | 717.5 ± 3.1 kg/m3 |
| CCCCCCCCCC [decane] | 672.1 ± 3.1 kg/m3 |
| CCCCCC [hexane] | 600.7 ± 3.2 kg/m3 |
| CCCCCCCCCCCC [dodecane] | 692.6 ± 3.1 kg/m3 |
